Key:
[1] = tested on: rice; experiment: Test Example 1: foliage treatment, upland pot test; assay type: in vivo, Oryza sativa L.; details: crop, active ingredient 500 g/ha, observed 18th to 23rd day, 0 = non-treated, 100 = complete kill
Outline: (§1)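 Upland pot test, foliar. Soybean 0.1–0.4 / wheat 1.3–2.4 / rice 1.2–2.6 / barnyardgrass 1.3–2.8 leaf stage at spraying; 500 L/ha carrier, 0.1% (v/v) spreader. Visual % control, 0 untreated to 100 dead, days 18–23.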

[2] = tested on: soybean; experiment: Test Example 2: soil surface treatment, upland pot test; assay type: in vivo, Glycine max Merr.; details: observed 20th to 28th day
Outline: (§2)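 Visual growth-control ratings, from 0 (like the non-treated plot) to 100 (total kill), were made between days 20 and 28 after a soil-surface spray. The compound, formulated as wettable powder or emulsifiable concentrate and diluted at 1,500 L/ha, went on one day post-sowing in upland-soil pots of 1/170,000 ha.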

[3] = tested on: soybean; experiment: Test Example 1: foliage treatment, upland pot test; assay type: in vivo, Glycine max Merr.; details: crop, active ingredient 500 g/ha, observed 18th to 23rd day, 0 = non-treated, 100 = complete kill
Outline: as §1

[4] = tested on: barnyardgrass; experiment: Test Example 2: soil surface treatment, upland pot test; assay type: in vivo, Echinochloa crus-galli L.; details: observed 20th to 28th day
Outline: as §2

[5] = tested on: barnyardgrass; experiment: Test Example 1: foliage treatment, upland pot test; assay type: in vivo, Echinochloa crus-galli L.; details: active ingredient 500 g/ha, observed 18th to 23rd day, 0 = non-treated, 100 = complete kill
Outline: as §1

[6] = tested on: barnyardgrass; experiment: Test Example 3: paddy pot test, application under submerged conditions; assay type: in vivo, Echinochloa crus-galli L.; details: active ingredient 250 g/ha; submerged application at 0.5 leaf stage; visually observed 14 days after application; 0 = non-treated, 100 = complete kill
Outline: (§3)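 Barnyardgrass and japanese bulrush sown in flooded paddy soil in greenhouse pots, japanese ribbon wapato tubers planted 1–2 days later; water depth kept at 3–4 cm. Diluted wettable powder or emulsifiable concentrate applied into water at 0.5-leaf or primary-leaf stage at set active-ingredient doses. Growth control scored visually at 14 days, 0 (untreated) to 100% (complete kill).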

[7] = tested on: corn; experiment: Test Example 1: foliage treatment, upland pot test; assay type: in vivo, Zea mays L.; details: crop, active ingredient 500 g/ha, observed 18th to 23rd day, 0 = non-treated, 100 = complete kill
Outline: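 Corn seeds were sown in upland field soil held in a 1/170,000 ha pot and grown to the 2.1 to 3.2 leaf stage. A wettable powder or emulsifiable concentrate of the test compound was diluted with water at 500 L/ha, given 0.1% (v/v) agricultural spreader, and sprayed onto the foliage with a small sprayer. Growth controlling degree (%) was scored visually 18th to 23rd days later, from 0 (non-treated) to 100 (complete kill).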

[8] = tested on: corn; experiment: Test Example 2: soil surface treatment, upland pot test; assay type: in vivo, Zea mays L.; details: observed 20th to 28th day
Outline: as §2

[9] = tested on: japanese bulrush; experiment: Test Example 3: paddy pot test, application under submerged conditions; assay type: in vivo, Scirpus juncoides; details: active ingredient 250 g/ha; submerged application at 0.5 leaf stage; visually observed 14 days after application; 0 = non-treated, 100 = complete kill
Outline: as §3

[10] = tested on: rice; experiment: Test Example 2: soil surface treatment, upland pot test; assay type: in vivo, Oryza sativa L.; details: observed 20th to 28th day
Outline: as §2

[11] = tested on: prickly sida; experiment: as above; assay type: in vivo, Sida spinosa L.; details: observed 20th to 28th day
Outline: as §2

[12] = tested on: velvetleaf; experiment: as above; assay type: in vivo, Abutilon theophrasti MEDIC.; details: observed 20th to 28th day
Outline: as §2

[13] = tested on: velvetleaf; experiment: Test Example 1: foliage treatment, upland pot test; assay type: in vivo, Abutilon theophrasti MEDIC.; details: active ingredient 500 g/ha, observed 18th to 23rd day, 0 = non-treated, 100 = complete kill
[14] = tested on: prickly sida; experiment: Test Example 1: foliage treatment, upland pot test; assay type: in vivo, Sida spinosa L.; details: active ingredient 500 g/ha, observed 18th to 23rd day, 0 = non-treated, 100 = complete kill
[15] = tested on: crabgrass; experiment: Test Example 1: foliage treatment, upland pot test; assay type: in vivo, Digitaria sanguinalis L.; details: active ingredient 500 g/ha, observed 18th to 23rd day, 0 = non-treated, 100 = complete kill
[16] = tested on: redroot pigweed; experiment: Test Example 2: soil surface treatment, upland pot test; assay type: in vivo, Amaranthus retroflexus L.; details: observed 20th to 28th day
Outline: as §2

[17] = tested on: green foxtail; experiment: as above; assay type: in vivo, Setaria viridis L.; details: observed 20th to 28th day
Outline: as §2

[18] = tested on: wheat; experiment: as above; assay type: in vivo, Triticum spp.; details: observed 20th to 28th day
Outline: as §2

[19] = tested on: japanese ribbon wapato; experiment: Test Example 3: paddy pot test, application under submerged conditions; assay type: in vivo, Sagittaria pygniaea; details: active ingredient 250 g/ha; submerged application at primary leaf stage; visually observed 14 days after application; 0 = non-treated, 100 = complete kill
Outline: as §3

[20] = tested on: redroot pigweed; experiment: Test Example 1: foliage treatment, upland pot test; assay type: in vivo, Amaranthus retroflexus L.; details: active ingredient 500 g/ha, observed 18th to 23rd day, 0 = non-treated, 100 = complete kill
[21] = tested on: green foxtail; experiment: Test Example 1: foliage treatment, upland pot test; assay type: in vivo, Setaria viridis L.; details: active ingredient 500 g/ha, observed 18th to 23rd day, 0 = non-treated, 100 = complete kill
[22] = tested on: wheat; experiment: Test Example 1: foliage treatment, upland pot test; assay type: in vivo, Triticum spp.; details: crop, active ingredient 500 g/ha, observed 18th to 23rd day, 0 = non-treated, 100 = complete kill
Outline: as §1

[23] = tested on: crabgrass; experiment: Test Example 2: soil surface treatment, upland pot test; assay type: in vivo, Digitaria sanguinalis L.; details: observed 20th to 28th day
Outline: as §2

[24] = tested on: rice (var. Nihonbare); experiment: Test Example 3: paddy pot test, transplanted rice; assay type: in vivo, Oryza sativa L.; details: active ingredient 250 g/ha, applied 4th day after transplantation, visually observed 21st day after application, 0 = non-treated, 100 = complete kill
Outline: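 Rice (var. Nihonbare) at 2 leaf stage transplanted 3 cm deep into puddled paddy soil under 3–4 cm flooding; on day 4 after transplanting, diluted wettable powder or emulsifiable concentrate applied by pipette under submerged conditions at a set active-ingredient dose. Growth scored visually 21 days after application, 0 (untreated) to 100 (complete kill) %.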

Row | SMILES | Growth controlling degree (%) Rice [1] [%] | Growth controlling degree (%) Soyabean ([2]; active ingredient 250 g/ha) [%] | Growth controlling degree (%) Soybean [3] [%] | Growth controlling degree (%) Barnyardgrass ([4]; active ingredient 250 g/ha) [%] | Growth controlling degree (%) Barnyardgrass [5] [%] | Growth controlling degree (%) Barnyardgrass [6] [%] | Growth controlling degree (%) Corn [7] [%] | Growth controlling degree (%) Corn ([8]; active ingredient 250 g/ha) [%] | Growth controlling degree (%) Japanese bulrush [9] [%] | Growth controlling degree (%) Rice ([10]; active ingredient 250 g/ha) [%] | Growth controlling degree (%) Prickly sida ([11]; active ingredient 250 g/ha) [%] | Growth controlling degree (%) Velvetleaf ([12]; active ingredient 250 g/ha) [%] | Growth controlling degree (%) Velvetleaf [13] [%] | Growth controlling degree (%) Prickly sida [14] [%] | Growth controlling degree (%) Crabgrass [15] [%] | Growth controlling degree (%) Redroot pigweed ([16]; active ingredient 250 g/ha) [%] | Growth controlling degree (%) Redroot pigweed [20] [%] | Growth controlling degree (%) Green foxtail [21] [%] | Growth controlling degree (%) wheat [22] [%] | Growth controlling degree (%) Rice [24] [%] | other results
1 | CC(C)C(c1cnccc1C(F)(F)F)N(C)C(=O)CC(C)(C)C (centres unmarked) [I-194] | 50 | 10 | 40 | 100 | 70 | 98 | 20 | 10 | 98 | 40 | 40 | 30 | 10 | 70 | 80 | 50 | 50 | 70 | 40 | 30 | Growth controlling degree (%) Green foxtail ([17]; active ingredient 250 g/ha): 100%; Growth controlling degree (%) wheat ([18]; active ingredient 250 g/ha): 20%; Growth controlling degree (%) Japanese ribbon wapato [19]: 30%; Growth controlling degree (%) Crabgrass ([23]; active ingredient 250 g/ha): 100%
2 | COCC(=O)N(C)C(c1cnccc1C(F)(F)F)C(C)C (centres unmarked) [I-195] | 70 | 10 | 60 | 98 | 70 | 70 | 10 | 20 | 100 | 40 | 30 | 10 | 60 | 70 | 80 | 30 | 80 | 60 | 30 | 20 | Growth controlling degree (%) Green foxtail ([17]; active ingredient 250 g/ha): 60%; Growth controlling degree (%) wheat ([18]; active ingredient 250 g/ha): 10%; Growth controlling degree (%) Japanese ribbon wapato [19]: 80%; Growth controlling degree (%) Crabgrass ([23]; active ingredient 250 g/ha): 98%
3 | CC(C)C(c1cnccc1C(F)(F)F)N(C)C(=O)C(Br)C(C)(C)C (centres unmarked) [I-196] | 40 | 10 | 40 | 70 | 60 | 98 | 10 | 30 | 100 | 30 | 60 | 30 | 10 | 70 | 60 | 60 | 50 | 40 | 40 | 10 | Growth controlling degree (%) Green foxtail ([17]; active ingredient 250 g/ha): 95%; Growth controlling degree (%) wheat ([18]; active ingredient 250 g/ha): 10%; Growth controlling degree (%) Japanese ribbon wapato [19]: 50%; Growth controlling degree (%) Crabgrass ([23]; active ingredient 250 g/ha): 90%
4 | CC(C)C(=O)N(C)C(c1cnccc1C(F)(F)F)C(C)C (centres unmarked) [I-198] | 80 | – | 60 | – | 70 | 100 | 70 | – | 100 | – | – | – | 40 | 70 | 80 | – | 70 | 60 | 70 | 60 | Growth controlling degree (%) Soyabean ([2]; active ingredient 500 g/ha): 90%; Growth controlling degree (%) Barnyardgrass ([4]; active ingredient 500 g/ha): 100%; Growth controlling degree (%) Corn ([8]; active ingredient 500 g/ha): 70%; Growth controlling degree (%) Rice ([10]; active ingredient 500 g/ha): 98%; Growth controlling degree (%) Prickly sida ([11]; active ingredient 500 g/ha): 90%; Growth controlling degree (%) Velvetleaf ([12]; active ingredient 500 g/ha): 70%; Growth controlling degree (%) Redroot pigweed ([16]; active ingredient 500 g/ha): 80%; Growth controlling degree (%) Green foxtail ([17]; active ingredient 500 g/ha): 100%; Growth controlling degree (%) wheat ([18]; active ingredient 500 g/ha): 98%; Growth controlling degree (%) Crabgrass ([23]; active ingredient 500 g/ha): 100%

From patent US20050239656A1, “Pyridine compounds or salts thereof and herbicides containing the same” (priority 2002, published 2005)
